Assay results published in patent publication US9662318B2, “Bitopic muscarinic agonists and antagonists and methods of synthesis and use thereof” (BARRY UNIVERSITY, INC., priority 2012, dated 2017).
Structures can show the parent of a compound that is named as a salt.

Tests used:
[1] = target: T1, M4 muscarinic receptor (Homo sapiens, UniProt P08173); experiment: Accumulation of inositol phosphates in CHO cells; type: cell-based; settings: for Effect of ligands on basal activity (accumulation of inositol phosphates as percent of accumulation in the absence of the ligand): M4, ligand 0.1 mM, no carbachol
T1 construct: host or cells: Chinese hamster ovary cells
T1 sequence (P08173 1-479): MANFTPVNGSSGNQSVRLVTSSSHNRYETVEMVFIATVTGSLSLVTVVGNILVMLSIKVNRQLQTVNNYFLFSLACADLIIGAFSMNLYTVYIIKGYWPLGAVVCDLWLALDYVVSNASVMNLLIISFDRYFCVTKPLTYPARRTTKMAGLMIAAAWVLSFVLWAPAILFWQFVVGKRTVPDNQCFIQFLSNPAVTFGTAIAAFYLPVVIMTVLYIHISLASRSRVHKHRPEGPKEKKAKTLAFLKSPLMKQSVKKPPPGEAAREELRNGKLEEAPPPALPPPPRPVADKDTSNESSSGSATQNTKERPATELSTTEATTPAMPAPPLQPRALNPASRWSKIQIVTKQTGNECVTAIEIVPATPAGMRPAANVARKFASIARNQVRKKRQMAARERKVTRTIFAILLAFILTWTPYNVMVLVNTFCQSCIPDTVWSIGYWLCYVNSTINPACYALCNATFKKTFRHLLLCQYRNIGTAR

[2] = target: T2, M5 muscarinic receptor (Homo sapiens, UniProt P08912); experiment: Accumulation of inositol phosphates in CHO cells; type: cell-based; settings: for Effect of ligands on basal activity (accumulation of inositol phosphates as percent of accumulation in the absence of the ligand): M5, ligand 0.1 mM, no carbachol
T2 construct: host or cells: CHO (Chinese hamster ovary) cells, stably transfected
T2 sequence (P08912 1-532): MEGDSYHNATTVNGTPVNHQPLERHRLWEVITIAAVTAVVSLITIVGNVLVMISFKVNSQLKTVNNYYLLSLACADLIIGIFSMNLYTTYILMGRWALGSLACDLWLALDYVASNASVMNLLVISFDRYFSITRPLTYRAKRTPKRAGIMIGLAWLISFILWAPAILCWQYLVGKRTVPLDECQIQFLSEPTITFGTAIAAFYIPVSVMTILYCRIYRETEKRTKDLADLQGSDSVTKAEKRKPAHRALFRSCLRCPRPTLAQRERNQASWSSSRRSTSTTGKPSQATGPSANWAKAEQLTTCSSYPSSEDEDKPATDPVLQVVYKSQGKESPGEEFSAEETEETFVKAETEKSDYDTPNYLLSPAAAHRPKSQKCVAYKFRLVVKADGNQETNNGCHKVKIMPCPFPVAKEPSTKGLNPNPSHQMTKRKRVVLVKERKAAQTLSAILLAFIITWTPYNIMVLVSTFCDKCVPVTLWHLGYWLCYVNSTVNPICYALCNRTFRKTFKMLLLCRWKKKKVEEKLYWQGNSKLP

[3] = target: T3, M1 muscarinic receptor (Homo sapiens, UniProt P11229); experiment: Competition with [3H]NMS (equilibrium binding, CHO membranes); settings: for Ki: read-out: Binding Equilibrium Constants (expressed as pKI) (converted)
T3 sequence (P11229 1-460): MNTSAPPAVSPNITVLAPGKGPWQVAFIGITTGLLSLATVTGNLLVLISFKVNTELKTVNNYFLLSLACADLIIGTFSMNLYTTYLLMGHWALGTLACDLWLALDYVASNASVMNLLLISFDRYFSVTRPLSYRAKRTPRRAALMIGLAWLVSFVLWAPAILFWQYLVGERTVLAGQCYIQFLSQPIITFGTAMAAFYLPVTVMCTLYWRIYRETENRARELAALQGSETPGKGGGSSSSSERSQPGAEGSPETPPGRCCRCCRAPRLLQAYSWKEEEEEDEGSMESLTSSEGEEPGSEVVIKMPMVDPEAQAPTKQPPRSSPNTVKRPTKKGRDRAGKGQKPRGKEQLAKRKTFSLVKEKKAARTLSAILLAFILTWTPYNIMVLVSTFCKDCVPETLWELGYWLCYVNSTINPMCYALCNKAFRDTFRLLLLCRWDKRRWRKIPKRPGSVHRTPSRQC
Description: (§1) All radioligand binding experiments were optimized and carried out as described earlier. Briefly, membranes were incubated in 96-well plates at 30° C. in the incubation medium described. […] Dissociation was initiated by addition of atropine to final concentration of 5 Tested ligands in final concentration of 100 μM were added concurrently with atropine. Incubations were terminated by filtration through Whatman GF/C glass fiber filters (Whatman) using a Brandel cell harvester (Brandel, Gaithersburg, Md., USA). Filters were dried in vacuum for 1 h while heated at 80° C. and then solid scintillator Meltilex A was melted on filters (105° C., 90 s) using a hot plate. The filters were cooled and counted in Wallac Microbeta scintillation counter.
(§2) Inhibition constant KI was calculated as: […]

[4] = target: T4, M3 muscarinic receptor (Homo sapiens, UniProt P20309); experiment: as above; settings: read-out: Binding Equilibrium Constants (expressed as pKI) (converted)
T4 construct: host or cells: Chinese hamster ovary cells
Description: as §1, §2

[5] = target: T1, M4 muscarinic receptor; experiment: as above; settings: read-out: Binding Equilibrium Constants (expressed as pKI) (converted)
Description: as §1, §2

[6] = target: T2, M5 muscarinic receptor; experiment: as above; settings: read-out: Binding Equilibrium Constants (expressed as pKI) (converted)
Description: as §1, §2

[7] = target: T3, M1 muscarinic receptor; experiment: Accumulation of inositol phosphates in CHO cells; type: cell-based; settings: ligand 0.1 mM, no carbachol
[8] = target: T4, M3 muscarinic receptor; experiment: Accumulation of inositol phosphates in CHO cells; type: cell-based; settings: ligand 0.1 mM, no carbachol
[9] = tested on: M1-M5 muscarinic receptors; experiment: Accumulation of inositol phosphates, statements over all subtypes; type: cell-based, human; settings: for basal functional response (in the absence of carbachol): 0.1 mM, at all receptor subtypes; for functional selectivity of antagonism: from shifts in carbachol EC50, Table 6
Description: Antagonism of tested compounds was determined at single high concentration of 0.1 mM.

[10] = target: T2, M5 muscarinic receptor; experiment: [3H]NMS saturation binding; settings: M5 CHO membranes; binding sites per mg of membrane protein
[11] = tested on: M1-M5 muscarinic receptors; experiment: Competition with [3H]NMS, statements over all subtypes; type: binding, human; settings: versus other subtypes; from pKI, Table 4

T4 sequence (P20309 whole entry): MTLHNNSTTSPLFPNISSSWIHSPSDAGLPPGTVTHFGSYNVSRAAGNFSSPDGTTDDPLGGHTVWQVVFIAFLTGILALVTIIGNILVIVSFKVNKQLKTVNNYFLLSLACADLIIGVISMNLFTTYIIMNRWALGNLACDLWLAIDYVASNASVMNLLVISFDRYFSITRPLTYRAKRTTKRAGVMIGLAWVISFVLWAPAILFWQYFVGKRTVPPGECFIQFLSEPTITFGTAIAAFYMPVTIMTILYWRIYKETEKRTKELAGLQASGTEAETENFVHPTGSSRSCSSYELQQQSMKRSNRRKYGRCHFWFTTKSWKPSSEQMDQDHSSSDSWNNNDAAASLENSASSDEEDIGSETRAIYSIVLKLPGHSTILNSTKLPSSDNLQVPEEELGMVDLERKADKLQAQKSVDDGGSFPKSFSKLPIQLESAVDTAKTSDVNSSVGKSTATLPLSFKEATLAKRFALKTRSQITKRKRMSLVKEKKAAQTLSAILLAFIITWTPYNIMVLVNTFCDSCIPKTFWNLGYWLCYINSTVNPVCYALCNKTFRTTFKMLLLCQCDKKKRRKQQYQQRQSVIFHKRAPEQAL

| Compound | EMAX ([1]; M4 CHO cells, accumulation of inositol phosphates) [fold over basal] | EMAX ([2]; M5 CHO cells, accumulation of inositol phosphates) [fold over basal] | Ki [3] [µM] | higher affinity for M1 receptor ([3]; versus other subtypes, from pKI, Table 4) | Ki [4] [µM] | Ki [5] [µM] | Ki [6] [µM] | Effect of ligands on basal activity (accumulation of inositol phosphates as percent of accumulation in the absence of the ligand) [7] [%] | Effect of ligands on basal activity (accumulation of inositol phosphates as percent of accumulation in the absence of the ligand) [8] [%] | Effect of ligands on basal activity (accumulation of inositol phosphates as percent of accumulation in the absence of the ligand) [1] [%] | Effect of ligands on basal activity (accumulation of inositol phosphates as percent of accumulation in the absence of the ligand) [2] [%] | functional selectivity of antagonism [9] | higher affinity for the M2 and M5 receptors [11] | basal functional response (in the absence of carbachol) [9] | BMAX [10] [pmol/mg] |
| --- | --- | --- | --- | --- | --- | --- | --- | --- | --- | --- | --- | --- | --- | --- | --- |
| C[N+](C)(C)CCOC(N)=O [carbachol, Carbachol, reference compound] | 3.3 ± 0.3 | 2.5 ± 0.2 | – | – | – | – | – | – | – | – | – | – | – | – | – |
| C[N+]1(C)[C@@H]2C[C@@H](OC(=O)[C@H](CO)c3ccccc3)C[C@H]1[C@@H]1O[C@@H]12 [NMS, N-methyl scopolamine] | – | – | – | – | – | – | – | – | – | – | – | – | – | – | 1.0 ± 0.1 |
| CCCCOc1ccc(C(=O)OCCN2CC=CCC2)cc1 [Compound 9a, 2-(1,2,5,6-tetrahydropyridine-N-ethyl)-4-butoxybenzoate hydrochloride] | – | – | 6.31 | – | 7.94 | 12.6 | – | – | 100 ± 1 | 100 ± 6 | – | – | – | – | – |
| CCCCOc1ccc(C(=O)OCC[N+]2(C)CC=CCC2)cc1 (stereo not drawn) [Compound 10a, 2-(1,2,5,6-tetrahydropyridine-N-ethyl)-4-butoxybenzoate N-methyl iodide] | – | – | 2.51 | – | 6.31 | 7.94 | 3.16 | 83 ± 3 | 74 ± 3 | 74 ± 7 | 89 ± 3 | – | – | lowered basal functional response | – |

The next lines start with results.

| EMAX ([1]; M4 CHO cells, accumulation of inositol phosphates) [fold over basal] | EMAX ([2]; M5 CHO cells, accumulation of inositol phosphates) [fold over basal] | Ki [3] [µM] | higher affinity for M1 receptor ([3]; versus other subtypes, from pKI, Table 4) | Ki [4] [µM] | Ki [5] [µM] | Ki [6] [µM] | Effect of ligands on basal activity (accumulation of inositol phosphates as percent of accumulation in the absence of the ligand) [7] [%] | Effect of ligands on basal activity (accumulation of inositol phosphates as percent of accumulation in the absence of the ligand) [8] [%] | Effect of ligands on basal activity (accumulation of inositol phosphates as percent of accumulation in the absence of the ligand) [1] [%] | Effect of ligands on basal activity (accumulation of inositol phosphates as percent of accumulation in the absence of the ligand) [2] [%] | functional selectivity of antagonism [9] | higher affinity for the M2 and M5 receptors [11] | Compound | basal functional response (in the absence of carbachol) [9] | BMAX [10] [pmol/mg] |
| --- | --- | --- | --- | --- | --- | --- | --- | --- | --- | --- | --- | --- | --- | --- | --- |
| – | – | 7.94 | two to three-fold | 15.8 | 25.1 | 25.1 | 85 ± 4 | 81 ± 5 | 73 ± 6 | 88 ± 3 | M1/M4 functionally selective antagonists | – | CCCCc1ccc(C(=O)OCCN2CC=CCC2)cc1 [Compound 9b, 2-(1,2,5,6-tetrahydropyridine-N-ethyl)-4-butylbenzoate hydrochloride] | lowered basal functional response | – |
| – | – | 3.98 | – | 6.31 | 9.77 | 5.01 | 103 ± 3 | 103 ± 3 | 106 ± 1 | 103 ± 3 | M1/M3 functionally selective antagonist | – | CCCCc1ccc(C(=O)OCCN2CCCCC2)cc1 [Compound 14b] | – | – |
| – | – | 2.51 | – | 3.98 | 3.98 | 1.58 | 98 ± 9 | – | – | 90 ± 10 | – | – | CCCCc1ccc(C(=O)OCC[N+]2(C)CC=CCC2)cc1 (stereo not drawn) [Compound 10b, 2-(1,2,5,6-tetrahydropyridine-N-ethyl)-4-butylbenzoate N-methyl iodide] | – | – |
| – | – | – | – | 0.398 | 0.398 | 0.158 | 101 ± 1 | 101 ± 1 | 100 ± 2 | 101 ± 1 | – | one to three fold | CCCCCCOc1ccc(C(=O)OCC[N+]2(C)CC=CCC2)cc1 (stereo not drawn) [Compound 10c, 2-(1,2,5,6-tetrahydropyridine-N-ethyl)-4-hexoxybenzoate N-methyl iodide] | – | – |
| – | – | 3.16 | – | 2.04 | 3.98 | 2.45 | 104 ± 4 | 104 ± 4 | 107 ± 4 | 104 ± 4 | M1/M5 functionally selective | – | CCCCc1ccc(C(=O)OCC[N+]2(C)CCCCC2)cc1 [Compound 13b, 2-(N-Piperidineethyl) p-butylbenzoyl ester N-methyl iodide] | – | – |
